Test systems include A549; CAKI-1; EKVX; HCC 2998; IGROV-1; LOX IMVI; M14; Malme-3M; NCI-H23; NCI-H460; OVCAR-3; RPMI-8226; SF-295; SK-MEL-2; SK-OV-3; UACC-62; MDA-MB-231; NCI/ADR-RES; PC-3; Hs-578T.
What all share (assay): growth of human tumour cells (NCI), 48 h

SMILES strings stand for the structures.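 Step 1: Grow cells in 96-well plates. Step 2: Expose to compound for 48 hours at 5 concentrations. Step 3: Interpolate endpoints linearly; if unreached, use highest concentration. Abbreviation: GI50, concentration required for 50% inhibition of growth.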 Activity calls are given as the source filed them. Cut-off read from the data, not from the text of the source: active = GI50 up to about 1.1 µM and inactive = higher.

For `C[C@]12CC[C@H](OCCC#N)CC1=CC[C@@H]1C2CC[C@]2(C)/C(=N/OCCC#N)CCC12` (stereo partly drawn), the GI50 is 31.3 µM (inactive) with A549; 26.1 µM (inactive) in the experiment with CAKI-1; > 94.8 µM (inactive) with EKVX; > 100 µM (inactive) in the experiment on HCC 2998; > 100 µM (inactive) in the experiment on IGROV-1; 5.7 µM (inactive) in the experiment with LOX IMVI. For the same compound, the GI50 with M14 is 38.3 µM (inactive); in the experiment on Malme-3M it was 30.1 µM (inactive); in the experiment on NCI-H23, 10.8 µM (inactive); in the experiment on NCI-H460 it was 97.7 µM (inactive); in the experiment on OVCAR-3, > 21 µM (inactive); in the experiment with RPMI-8226, > 100 µM (inactive). In addition, the GI50 with SF-295 was 17.2 µM (inactive); with SK-MEL-2, > 50.2 µM (inactive); with SK-OV-3 it was > 63 µM (inactive); with UACC-62, 21.9 µM (inactive).
With `CC(C)(C)OC(=O)C(C#N)C(=O)c1ccc(C(=O)O)[nH]1` (stereo not drawn), the GI50 in the experiment with A549 was 35.9 µM (inactive); in the experiment on CAKI-1, 18.8 µM (inactive); in the experiment on EKVX, 29.2 µM (inactive); in the experiment with LOX IMVI it was 27.7 µM (inactive); with M14 it was 44.2 µM (inactive); in the experiment on MDA-MB-231 it was 29.4 µM (inactive). The GI50 in the experiment on Malme-3M is 35.2 µM (inactive); in the experiment on NCI-H23, 36.3 µM (inactive); in the experiment on NCI-H460, 29.7 µM (inactive); in the experiment on NCI/ADR-RES, 12.7 µM (inactive); in the experiment on OVCAR-3, 29.3 µM (inactive); in the experiment with PC-3, 33.7 µM (inactive). Besides, the GI50 was 22.8 µM (inactive) in the experiment on RPMI-8226; 33.5 µM (inactive) in the experiment with SF-295; 23.6 µM (inactive) in the experiment on SK-MEL-2; 42 µM (inactive) in the experiment on SK-OV-3; 18.3 µM (inactive) with UACC-62.
Turning to `COc1cn2c(cc1=O)COc1ccc(-c3ccccc3)cc1-2`, the GI50 in the experiment on A549 is 39.6 µM (inactive); in the experiment with CAKI-1, 43.4 µM (inactive); with EKVX, 36 µM (inactive); in the experiment on HCC 2998, 46.9 µM (inactive); with IGROV-1, 38.8 µM (inactive); with LOX IMVI, 36.9 µM (inactive). Also, the GI50 was 45.4 µM (inactive) in the experiment on M14; 42.6 µM (inactive) in the experiment on Malme-3M; 45.5 µM (inactive) in the experiment with NCI-H23; 37.6 µM (inactive) with NCI-H460; 49.9 µM (inactive) in the experiment on NCI/ADR-RES; > 55.7 µM (inactive) with OVCAR-3. The GI50 in the experiment on PC-3 is 43.2 µM (inactive); in the experiment with RPMI-8226, 42.9 µM (inactive); in the experiment on SF-295, > 78.2 µM (inactive); in the experiment with SK-MEL-2, > 100 µM (inactive); in the experiment with SK-OV-3 it was > 73.8 µM (inactive); with UACC-62, 44 µM (inactive).
Take `CC(NC(=O)OC(C)(C)C)C(=O)NC(Cc1ccccc1)C(=O)NCC(=O)ON=C1CCCC1` (stereo not drawn): the GI50 in the experiment on A549 was > 100 µM (inactive); in the experiment on CAKI-1, > 100 µM (inactive); in the experiment on EKVX, > 100 µM (inactive); in the experiment with HCC 2998, 89.7 µM (inactive); with IGROV-1 it was > 100 µM (inactive); in the experiment with LOX IMVI, > 100 µM (inactive). Also, the GI50 was 53.3 µM (inactive) with M14; 43.5 µM (inactive) in the experiment with MDA-MB-231; > 100 µM (inactive) in the experiment with Malme-3M; > 100 µM (inactive) with NCI-H23; > 100 µM (inactive) with NCI-H460; > 100 µM (inactive) in the experiment on NCI/ADR-RES. Moreover, the GI50 in the experiment on OVCAR-3 is > 100 µM (inactive); in the experiment on PC-3 it was > 100 µM (inactive); with RPMI-8226, 97.5 µM (inactive); in the experiment with SF-295, > 100 µM (inactive); in the experiment on SK-MEL-2, > 100 µM (inactive); in the experiment on SK-OV-3, > 100 µM (inactive). Also, the GI50 with UACC-62 was > 100 µM (inactive).
With `N#CC(c1cc(Cl)ncn1)c1nc2ccccc2s1` (stereo not drawn), the GI50 in the experiment on A549 is 27.8 µM (inactive); in the experiment with CAKI-1, 18.6 µM (inactive); in the experiment with EKVX, 20.9 µM (inactive); with IGROV-1, 6.92 µM (inactive); with LOX IMVI, 4.72 µM (inactive); in the experiment on M14, 17.1 µM (inactive). Moreover, the GI50 in the experiment with MDA-MB-231 is 11.1 µM (inactive); in the experiment on Malme-3M it was 10.8 µM (inactive); with NCI-H23, 5.04 µM (inactive); in the experiment on NCI-H460, 4.27 µM (inactive); in the experiment on NCI/ADR-RES it was 3.29 µM (inactive); in the experiment on OVCAR-3, 7.01 µM (inactive). The figures for the GI50 with RPMI-8226, in the experiment with SF-295 and in the experiment with SK-OV-3 were 2.49 µM (inactive), 15.6 µM (inactive) and 14.8 µM (inactive), respectively.
On to `COc1ccc2c(c1)c(=O)c1c(NCCN(C)C)ccc3nnn2c31`, for which the GI50 was 2.21 µM (inactive) with A549; 3.01 µM (inactive) in the experiment on CAKI-1; 2.05 µM (inactive) in the experiment with EKVX; 2.76 µM (inactive) with HCC 2998; 3.33 µM (inactive) in the experiment on IGROV-1; 1.33 µM (inactive) in the experiment on LOX IMVI. Besides, the GI50 was 3.99 µM (inactive) in the experiment with M14; 3.94 µM (inactive) in the experiment on Malme-3M; 2.68 µM (inactive) with NCI-H23; 1.61 µM (inactive) with NCI-H460; 4.24 µM (inactive) with OVCAR-3; 1.65 µM (inactive) in the experiment with RPMI-8226. The GI50 with SF-295 is 2.11 µM (inactive); with SK-MEL-2 it was 6.31 µM (inactive); in the experiment on SK-OV-3, 4.01 µM (inactive); in the experiment with UACC-62, 4.71 µM (inactive).
With `CCN(CC)C(=O)N1CN(c2ccccc2)C2(CCN(CCCSc3ccc(F)cc3)CC2)C1=O`, the GI50 in the experiment on A549 is 18.8 µM (inactive); in the experiment with CAKI-1 it was 87.7 µM (inactive); in the experiment on EKVX it was 3.93 µM (inactive); with Hs-578T it was 2.79 µM (inactive); in the experiment with LOX IMVI it was 2.84 µM (inactive); with M14, 3.56 µM (inactive). Besides, the GI50 is 15.9 µM (inactive) with Malme-3M; 7.83 µM (inactive) in the experiment on NCI-H23; 21.2 µM (inactive) in the experiment with NCI/ADR-RES; 5.13 µM (inactive) in the experiment on OVCAR-3; 6.56 µM (inactive) in the experiment on PC-3; 5.81 µM (inactive) with RPMI-8226. The GI50 was 12.1 µM (inactive) with SF-295, 7.16 µM (inactive) in the experiment with SK-MEL-2, 19 µM (inactive) with SK-OV-3 and > 10 µM (inactive) in the experiment on UACC-62.
For the compound `CN(C)CCNC(=O)c1cccc2cc3ccc4ccccc4c3nc12`, the GI50 was 0.0226 µM (active) with A549; 0.0413 µM (active) with CAKI-1; 0.145 µM (active) with EKVX; 0.104 µM (active) in the experiment with HCC 2998; 0.105 µM (active) in the experiment with IGROV-1; 0.0502 µM (active) with LOX IMVI. Further, the GI50 was 0.2 µM (active) in the experiment with M14; 0.268 µM (active) in the experiment on Malme-3M; 0.0851 µM (active) with NCI-H23; 0.0149 µM (active) in the experiment with NCI-H460; 0.215 µM (active) in the experiment on OVCAR-3; 0.145 µM (active) in the experiment with RPMI-8226. Also, the GI50 in the experiment on SF-295 was 0.0867 µM (active); with SK-MEL-2, 0.203 µM (active); with SK-OV-3, 0.121 µM (active); with UACC-62, 0.0776 µM (active).
As for `O=C(CC1(O)C(=O)Nc2c(Cl)cc(Cl)cc21)c1ccc(F)cc1` (stereo not drawn), the GI50 with A549 was 59 µM (inactive); in the experiment on CAKI-1 it was 92 µM (inactive); with EKVX, 68.7 µM (inactive); in the experiment on HCC 2998 it was 40 µM (inactive); in the experiment with IGROV-1 it was 28.3 µM (inactive); with LOX IMVI, 24.7 µM (inactive). The GI50 in the experiment on M14 was 32.7 µM (inactive); in the experiment on Malme-3M, 41.9 µM (inactive); in the experiment with NCI-H23, 28.5 µM (inactive); with NCI-H460 it was 38.8 µM (inactive); with OVCAR-3, 37.6 µM (inactive); in the experiment on RPMI-8226, 24.9 µM (inactive). In addition, the GI50 with SF-295 was 34.7 µM (inactive); in the experiment with SK-MEL-2, 46.8 µM (inactive); in the experiment with SK-OV-3, 93.8 µM (inactive); with UACC-62, 35.8 µM (inactive).
For the compound `C=CCC1(CN(C)C)CC/C(=C\c2ccc(Cl)cc2)C1=O` (stereo not drawn), the GI50 was 59.6 µM (inactive) in the experiment on A549; > 100 µM (inactive) in the experiment with CAKI-1; 38.9 µM (inactive) with EKVX; 33.1 µM (inactive) in the experiment on HCC 2998; 29.2 µM (inactive) with IGROV-1; 23.8 µM (inactive) in the experiment on LOX IMVI. Besides, the GI50 in the experiment with M14 was 23.7 µM (inactive); with Malme-3M, > 74.5 µM (inactive); with NCI-H23, 47.5 µM (inactive); with NCI-H460 it was 20.2 µM (inactive); with OVCAR-3, 36.1 µM (inactive); in the experiment on RPMI-8226, 17 µM (inactive). The GI50 with SF-295 is 35.5 µM (inactive); with SK-MEL-2, > 100 µM (inactive); in the experiment on SK-OV-3 it was > 100 µM (inactive); with UACC-62, 49.9 µM (inactive).
On to `CO[C@@](c1ccccc1)(c1nc(C#N)c(N)o1)C(F)(F)F`, for which the GI50 with A549, with CAKI-1, in the experiment with EKVX, with HCC 2998, with IGROV-1 and with LOX IMVI was > 100 µM (inactive) throughout. For the same compound, the GI50 in the experiment with M14, in the experiment with MDA-MB-231, in the experiment on Malme-3M, in the experiment on NCI-H23, in the experiment with NCI/ADR-RES and in the experiment with OVCAR-3 was > 100 µM (inactive) each time. The GI50 is > 100 µM (inactive) in the experiment on PC-3; 36.3 µM (inactive) in the experiment on RPMI-8226; > 100 µM (inactive) with SF-295; > 100 µM (inactive) with SK-MEL-2; > 100 µM (inactive) with SK-OV-3; 77.4 µM (inactive) in the experiment with UACC-62.
With `CCOC(=O)/C(C(=O)c1ccc([N+](=O)[O-])cc1)=C(\NS(=O)(=O)c1cc(C)c(Cl)cc1[S-])[n+]1ccc(N(C)C)cc1`, the GI50 is 38.8 µM (inactive) with A549; 35.1 µM (inactive) with CAKI-1; 45.3 µM (inactive) in the experiment on IGROV-1; 31.1 µM (inactive) with M14; 47.9 µM (inactive) in the experiment on MDA-MB-231; 14.4 µM (inactive) in the experiment on Malme-3M. In addition, the GI50 with NCI-H460 is 34.9 µM (inactive); in the experiment on NCI/ADR-RES it was 43.1 µM (inactive); in the experiment on OVCAR-3 it was 32.3 µM (inactive); in the experiment with PC-3 it was 16.7 µM (inactive); with RPMI-8226 it was 28.1 µM (inactive); with SF-295 it was 16.7 µM (inactive). The GI50 is 3.83 µM (inactive) in the experiment on SK-MEL-2, 25.8 µM (inactive) with SK-OV-3 and 49.3 µM (inactive) in the experiment on UACC-62.

Source of the values: ChEMBL document CHEMBL1201862, “PubChem BioAssay data set” (2004).
